Key:
CTL4 = target: T1, CTL4 (Anopheles gambiae, UniProt Q7Q7F7); assay: SPR steady-state affinity (Biacore T200, protein immobilised on CM5); type: binding; conditions: PBS, 1 mM CaCl2, 1 mM MgCl2
T1 construct: gene 1276043; 6xHis-tagged CTL4 monomer, secreted from T.ni insect cells (baculovirus, synthetic gene)
T1 sequence (Q7Q7F7 25-177): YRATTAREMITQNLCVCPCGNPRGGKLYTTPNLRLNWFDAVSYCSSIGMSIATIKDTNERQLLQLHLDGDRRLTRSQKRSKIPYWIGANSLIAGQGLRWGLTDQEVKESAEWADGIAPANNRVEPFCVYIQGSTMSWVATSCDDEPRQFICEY
Text: SPR steady-state affinity (Biacore T200, protein immobilised on CM5) on CTL4

CTLMA2 [1] = target: T2, CTLMA2 (Anopheles gambiae, UniProt Q7Q7F8); assay: as above; type: binding; conditions: PBS, 1 mM CaCl2, 1 mM MgCl2
T2 construct: gene 1276042; 6xHis-tagged CTLMA2 monomer, secreted from T.ni insect cells (baculovirus, synthetic gene)
T2 sequence (Q7Q7F8 18-174): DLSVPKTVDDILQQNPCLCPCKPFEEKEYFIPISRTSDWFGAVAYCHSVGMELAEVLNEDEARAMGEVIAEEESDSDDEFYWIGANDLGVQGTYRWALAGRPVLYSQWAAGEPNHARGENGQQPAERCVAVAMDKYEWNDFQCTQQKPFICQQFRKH
Text: SPR steady-state affinity (Biacore T200, protein immobilised on CM5) on CTLMA2

CTL4/CTLMA2 [2] = target: T3, CTL4/CTLMA2 (Anopheles gambiae, UniProt Q7Q7F7+Q7Q7F8); assay: as above; type: binding; conditions: PBS, 1 mM CaCl2, 1 mM MgCl2
T3 construct: gene 1276043; disulfide-bridged heterodimer, pFastbac-Dual, C-terminal 6xHis on CTL4 (178-183), secreted from T.ni cells, signal peptides removed; 35 kDa
T3 sequence (Q7Q7F7 25-177): T1 sequence (Q7Q7F7 25-177)
T3 sequence (Q7Q7F8 18-174): T2 sequence (Q7Q7F8 18-174)
Text: SPR steady-state affinity (Biacore T200, protein immobilised on CM5) on CTL4/CTLMA2

CTL4/CTLMA2 [3] = target: T3, CTL4/CTLMA2; assay: glycan array, anti-His fluorescence detection; type: binding; conditions: PBS, 1 mM CaCl2, 1 mM MgCl2; glycan immobilised through spacer
Text: glycan array, anti-His fluorescence detection on CTL4/CTLMA2

[4] = tested on: An. gambiae CTL4 (AGAP005335) with C-terminal 6xHis tag, chain of the CTL4/CTLMA2 heterodimer; assay: non-reducing SDS-PAGE; purified CTL4/CTLMA2 on non-reducing and reducing SDS-PAGE; shows the disulfide-bridged species; conditions: other: non-reducing SDS-PAGE
CTLMA2 [5] = target: T2, CTLMA2; assay: glycan array, anti-His fluorescence detection; type: binding; conditions: PBS, 1 mM CaCl2, 1 mM MgCl2; glycan immobilised through spacer
Text: glycan array, anti-His fluorescence detection on CTLMA2

Question: How did the Kd (CTL4) turn out when CC(=O)N[C@H]1C(O)O[C@H](CO)[C@@H](O)[C@@H]1O (stereo partly drawn) [113,251, GlcNAc monosaccharide] was run?
Answer: The Kd was 27.9 ± 11.4 µM.

Question: What about the Kd (CTLMA2 [1]) of the same compound?
Answer: Its Kd is 29.7 ± 7.91 µM.

Question: And the Kd (CTL4/CTLMA2 [2])?
Answer: Its Kd is 21.9 ± 2.8 µM.

Question: CC(=O)N[C@H]1[C@H](O[C@H]2[C@@H](O)[C@@H](CO)O[C@@H](O[C@H]3[C@H](O)[C@@H](O)C(O)O[C@@H]3CO)[C@@H]2O)O[C@H](CO)[C@@H](O[C@@H]2O[C@H](CO)[C@H](O)[C@H](O)[C@H]2O)[C@@H]1O (stereo partly drawn) [383,488, LNnT] was tested. Which Kd (CTL4/CTLMA2 [2]) did it give?
Answer: The Kd was 17.6 ± 2.99 µM.

Question: How did the CTL4/CTLMA2 (CTL4/CTLMA2 [3]) turn out when O=P(O)(O)OC[C@H]1OC(O)[C@@H](O)[C@@H](O)[C@@H]1O (stereo partly drawn) [compound 47, 6-H2PO3Manα-sp3] was run?
Answer: The CTL4/CTLMA2 was 1.32 fold.

Question: For CC(=O)N[C@H]1C(O)O[C@H](CO)[C@@H](O[C@@H]2O[C@H](COS(=O)(=O)O)[C@H](O)[C@H](O)[C@H]2O)[C@@H]1O (stereo partly drawn) [compound 163], which Kd (CTL4) is on record?
Answer: Its Kd is 0.292 ± 0.15 µM.

Question: Which Kd (CTLMA2 [1]) does the source give for CC(=O)N[C@H]1C(O)O[C@H](CO)[C@@H](O[C@@H]2O[C@@H](C)[C@@H](O)[C@@H](O)[C@@H]2O)[C@@H]1O[C@@H]1O[C@H](CO)[C@H](O)[C@H](OS(=O)(=O)O)[C@H]1O (stereo partly drawn) [compound 287, Sulfo-Lewis A] here?
Answer: The Kd was 0.106 ± 0.06 µM.

Question: What about the Kd (CTL4/CTLMA2 [2]) of the same compound?
Answer: Its Kd is 0.095 ± 0.02 µM.

Question: For CC(=O)N[C@H]1[C@@H](O[C@H]2[C@@H](O)[C@@H](CO)OC(O)[C@@H]2O[C@@H]2O[C@@H](C)[C@@H](O)[C@@H](O)[C@@H]2O)O[C@H](CO)[C@H](O)[C@@H]1O (stereo partly drawn) [compound 386, A blood group trisaccharide], which Kd (CTL4) is on record?
Answer: The Kd was 49.3 ± 12.2 µM.

Question: What about the Kd (CTLMA2 [1]) of the same compound?
Answer: Its Kd is 1.77 ± 0.19 µM.

Question: What about the Kd (CTL4/CTLMA2 [2]) of the same compound?
Answer: The Kd was 5.56 ± 2.9 µM.

Question: Which Kd (CTLMA2 [1]) does the source give for CC(=O)N[C@H]1[C@H]([C@H](O)[C@H](O)CO)O[C@@](O[C@H]2[C@@H](O)[C@@H](CO)O[C@@H](O[C@H]3[C@H](O[C@@H]4O[C@@H](C)[C@@H](O)[C@@H](O)[C@@H]4O)[C@@H](NC(C)=O)C(O)O[C@@H]3CO)[C@@H]2O)(C(=O)O)C[C@@H]1O (stereo partly drawn) [compound 428, Sialyl-Lewis X] here?
Answer: The Kd was 0.619 ± 0.1 µM.

Question: What about the Kd (CTL4/CTLMA2 [2]) of the same compound?
Answer: The Kd was 3.81 ± 1 µM.

Question: With C[C@@H]1O[C@@H](O[C@H]2C(O)O[C@H](CO)[C@H](O)[C@@H]2O)[C@@H](O)[C@H](O)[C@@H]1O (stereo partly drawn) [compound 479, H disaccharide] as the compound, how does the Kd (CTLMA2 [1]) read?
Answer: The Kd was 10.4 ± 3.26 µM.

Question: And the Kd (CTL4/CTLMA2 [2])?
Answer: Its Kd is 26.6 ± 6.81 µM.

Question: How did the Kd (CTL4/CTLMA2 [2]) turn out when CC(=O)N[C@H]1[C@H](O[C@H]2[C@@H](O)[C@@H](CO)O[C@@H](O[C@H]3[C@H](O)[C@@H](O)C(O)O[C@@H]3CO)[C@@H]2O)O[C@H](CO)[C@@H](O)[C@@H]1O[C@@H]1O[C@H](CO)[C@H](O)[C@H](O)[C@H]1O (stereo partly drawn) [compound 536, LNT] was run?
Answer: The Kd was 8.22 ± 1.71 µM.

Question: With “An. gambiae CTLMA2 (AGAP005334), chain of the CTL4/CTLMA2 heterodimer” as the compound, how does the “percent of the purified product that is heterodimer” value [4] read?
Answer: The value was “the purified product is overwhelmingly (>95%) heterodimer”.

Question: For “GlcNAcβ1-4Galβ1-4GlcNAcβ-sp2 [compound 251]”, which CTLMA2 (CTLMA2 [5]) is on record?
Answer: Its CTLMA2 is 1.04 fold.

Question: For “Neu5Acα2-3(GalNAcβ1-4)Galβ1-4Glcβ-sp2 [compound 421]”, which CTL4/CTLMA2 (CTL4/CTLMA2 [3]) is on record?
Answer: Its CTL4/CTLMA2 is 1.94 fold.

Question: How did the CTL4/CTLMA2 (CTL4/CTLMA2 [3]) turn out when “Neu5Acα2-3Galβ1-3GlcNAcβ1-3Galβ1-4Glcβ-sp4 [compound 536]” was run?
Answer: The CTL4/CTLMA2 was 2.13 fold.

Question: How did the Kd (CTL4) turn out when asialo-GM1 [18B] was run?
Answer: The Kd was 15.4 ± 3.99 µM.
